Experiment [1] addresses Myosin light chain kinase, smooth muscle (Homo sapiens, UniProt Q15746). Briefly: Selectivity interaction (KinomeScan (DiscoverX)) EUB0000595a MYLK. The following applies: at 10 µM.
Experiment [2] addresses T1, Tyrosine-protein kinase JAK3 (Homo sapiens) (UniProt P52333).
T1 sequence (whole entry): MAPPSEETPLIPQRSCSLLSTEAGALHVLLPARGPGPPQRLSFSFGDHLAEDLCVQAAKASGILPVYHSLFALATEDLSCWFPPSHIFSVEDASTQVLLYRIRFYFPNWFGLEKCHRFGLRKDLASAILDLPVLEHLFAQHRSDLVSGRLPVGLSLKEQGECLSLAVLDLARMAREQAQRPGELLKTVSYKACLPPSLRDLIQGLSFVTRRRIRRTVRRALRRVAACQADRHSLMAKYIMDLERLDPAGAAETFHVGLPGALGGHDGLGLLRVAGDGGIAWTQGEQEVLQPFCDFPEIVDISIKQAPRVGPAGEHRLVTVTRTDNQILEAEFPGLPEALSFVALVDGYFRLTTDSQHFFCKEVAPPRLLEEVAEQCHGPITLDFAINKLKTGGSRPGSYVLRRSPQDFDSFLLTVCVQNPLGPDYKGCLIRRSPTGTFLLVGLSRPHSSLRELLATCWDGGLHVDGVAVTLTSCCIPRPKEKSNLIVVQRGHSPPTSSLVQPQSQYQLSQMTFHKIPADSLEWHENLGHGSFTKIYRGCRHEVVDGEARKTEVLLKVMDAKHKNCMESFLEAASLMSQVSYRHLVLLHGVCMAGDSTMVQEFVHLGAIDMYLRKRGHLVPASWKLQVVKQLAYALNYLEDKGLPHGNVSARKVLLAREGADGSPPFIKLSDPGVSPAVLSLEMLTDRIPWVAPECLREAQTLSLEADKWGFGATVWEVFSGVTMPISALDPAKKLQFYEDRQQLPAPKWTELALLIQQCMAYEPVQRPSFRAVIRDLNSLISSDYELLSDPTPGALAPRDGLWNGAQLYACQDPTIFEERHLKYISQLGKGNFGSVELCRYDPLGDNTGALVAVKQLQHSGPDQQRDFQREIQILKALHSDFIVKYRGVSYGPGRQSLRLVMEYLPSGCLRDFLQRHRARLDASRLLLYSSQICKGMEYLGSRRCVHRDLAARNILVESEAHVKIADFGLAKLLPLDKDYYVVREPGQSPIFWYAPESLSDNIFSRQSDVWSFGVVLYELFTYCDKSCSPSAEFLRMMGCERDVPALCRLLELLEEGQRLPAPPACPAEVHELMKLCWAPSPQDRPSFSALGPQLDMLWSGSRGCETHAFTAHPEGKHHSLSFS
Briefly: Selectivity interaction (KinomeScan (DiscoverX)) EUB0000595a JAK3. The note with it: at 10 µM.

Experiment [3] addresses Maternal embryonic leucine zipper kinase (Homo sapiens) (UniProt Q14680). Briefly: Selectivity interaction (KinomeScan (DiscoverX)) EUB0001619a MELK. The following applies: at 1 µM.
Experiment [4] addresses T2, Ephrin type-A receptor 6 (Homo sapiens) (UniProt Q9UF33).
T2 sequence (whole entry): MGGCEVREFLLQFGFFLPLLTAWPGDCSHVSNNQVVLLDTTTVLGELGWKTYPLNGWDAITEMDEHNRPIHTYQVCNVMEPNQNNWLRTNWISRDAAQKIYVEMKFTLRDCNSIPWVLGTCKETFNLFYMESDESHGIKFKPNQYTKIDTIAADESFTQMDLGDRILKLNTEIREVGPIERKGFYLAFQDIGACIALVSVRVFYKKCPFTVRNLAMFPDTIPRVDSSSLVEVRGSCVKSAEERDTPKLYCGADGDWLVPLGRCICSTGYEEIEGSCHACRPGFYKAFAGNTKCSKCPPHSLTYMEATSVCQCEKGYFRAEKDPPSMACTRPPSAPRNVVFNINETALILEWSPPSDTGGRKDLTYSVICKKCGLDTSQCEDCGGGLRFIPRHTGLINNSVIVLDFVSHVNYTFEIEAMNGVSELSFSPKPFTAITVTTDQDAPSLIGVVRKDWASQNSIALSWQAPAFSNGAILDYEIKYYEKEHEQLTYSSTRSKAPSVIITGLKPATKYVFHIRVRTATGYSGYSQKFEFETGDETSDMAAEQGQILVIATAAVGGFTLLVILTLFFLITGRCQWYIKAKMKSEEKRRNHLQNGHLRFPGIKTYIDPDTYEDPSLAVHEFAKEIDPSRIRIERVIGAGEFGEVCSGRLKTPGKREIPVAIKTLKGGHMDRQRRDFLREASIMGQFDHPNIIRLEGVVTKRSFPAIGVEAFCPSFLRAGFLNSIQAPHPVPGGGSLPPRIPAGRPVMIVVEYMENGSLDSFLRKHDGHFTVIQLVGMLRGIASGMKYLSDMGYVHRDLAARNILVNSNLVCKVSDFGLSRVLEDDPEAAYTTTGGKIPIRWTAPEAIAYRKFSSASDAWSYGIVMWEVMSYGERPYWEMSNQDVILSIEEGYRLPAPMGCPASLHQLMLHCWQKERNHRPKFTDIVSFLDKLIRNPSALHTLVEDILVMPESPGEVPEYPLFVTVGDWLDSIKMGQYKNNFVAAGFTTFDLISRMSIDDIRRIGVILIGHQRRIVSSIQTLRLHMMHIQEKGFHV
Briefly: Selectivity interaction (KinomeScan (DiscoverX)) EUB0000607a EPHA6. The following applies: at 10 µM.

Experiment [5] addresses Serine/threonine-protein kinase MRCK gamma (Homo sapiens) (UniProt Q6DT37). Briefly: Selectivity interaction (KinomeScan (DiscoverX)) EUB0000607a CDC42BPG. The note with it: at 10 µM.
The target in experiment [6] is Cyclin-dependent kinase 14 (Homo sapiens) (UniProt O94921). The note with it: at 10 µM.
Cyclin-dependent kinase 14 (Homo sapiens), sequence (O94921 whole entry): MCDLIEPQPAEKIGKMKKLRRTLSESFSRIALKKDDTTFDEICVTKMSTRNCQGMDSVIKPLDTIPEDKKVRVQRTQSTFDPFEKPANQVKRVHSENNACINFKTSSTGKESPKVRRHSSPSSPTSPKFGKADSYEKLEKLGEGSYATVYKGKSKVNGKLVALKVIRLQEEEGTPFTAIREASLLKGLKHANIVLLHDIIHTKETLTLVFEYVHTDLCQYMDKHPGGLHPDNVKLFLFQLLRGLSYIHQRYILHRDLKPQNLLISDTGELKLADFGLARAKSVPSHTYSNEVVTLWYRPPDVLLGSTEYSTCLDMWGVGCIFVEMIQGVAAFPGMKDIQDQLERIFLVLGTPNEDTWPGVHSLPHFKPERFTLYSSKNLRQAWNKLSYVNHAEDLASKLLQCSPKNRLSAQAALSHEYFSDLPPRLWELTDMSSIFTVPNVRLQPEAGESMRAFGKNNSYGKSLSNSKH
Another experiment has as its target SRSF protein kinase 1 (Homo sapiens, UniProt Q96SB4). Briefly: Selectivity interaction (Kinase panel (Invitrogen)) EUB0000639a SRPK1. The following applies: at 200 nM.
Experiment [7] addresses Ribosomal protein S6 kinase alpha-6 (Homo sapiens, UniProt Q9UK32). Briefly: Selectivity interaction (KinomeScan (DiscoverX)) EUB0000045b RPS6KA6. The note with it: at 10 µM.

Serine/threonine-protein kinase MRCK gamma (Homo sapiens), sequence (Q6DT37 whole entry): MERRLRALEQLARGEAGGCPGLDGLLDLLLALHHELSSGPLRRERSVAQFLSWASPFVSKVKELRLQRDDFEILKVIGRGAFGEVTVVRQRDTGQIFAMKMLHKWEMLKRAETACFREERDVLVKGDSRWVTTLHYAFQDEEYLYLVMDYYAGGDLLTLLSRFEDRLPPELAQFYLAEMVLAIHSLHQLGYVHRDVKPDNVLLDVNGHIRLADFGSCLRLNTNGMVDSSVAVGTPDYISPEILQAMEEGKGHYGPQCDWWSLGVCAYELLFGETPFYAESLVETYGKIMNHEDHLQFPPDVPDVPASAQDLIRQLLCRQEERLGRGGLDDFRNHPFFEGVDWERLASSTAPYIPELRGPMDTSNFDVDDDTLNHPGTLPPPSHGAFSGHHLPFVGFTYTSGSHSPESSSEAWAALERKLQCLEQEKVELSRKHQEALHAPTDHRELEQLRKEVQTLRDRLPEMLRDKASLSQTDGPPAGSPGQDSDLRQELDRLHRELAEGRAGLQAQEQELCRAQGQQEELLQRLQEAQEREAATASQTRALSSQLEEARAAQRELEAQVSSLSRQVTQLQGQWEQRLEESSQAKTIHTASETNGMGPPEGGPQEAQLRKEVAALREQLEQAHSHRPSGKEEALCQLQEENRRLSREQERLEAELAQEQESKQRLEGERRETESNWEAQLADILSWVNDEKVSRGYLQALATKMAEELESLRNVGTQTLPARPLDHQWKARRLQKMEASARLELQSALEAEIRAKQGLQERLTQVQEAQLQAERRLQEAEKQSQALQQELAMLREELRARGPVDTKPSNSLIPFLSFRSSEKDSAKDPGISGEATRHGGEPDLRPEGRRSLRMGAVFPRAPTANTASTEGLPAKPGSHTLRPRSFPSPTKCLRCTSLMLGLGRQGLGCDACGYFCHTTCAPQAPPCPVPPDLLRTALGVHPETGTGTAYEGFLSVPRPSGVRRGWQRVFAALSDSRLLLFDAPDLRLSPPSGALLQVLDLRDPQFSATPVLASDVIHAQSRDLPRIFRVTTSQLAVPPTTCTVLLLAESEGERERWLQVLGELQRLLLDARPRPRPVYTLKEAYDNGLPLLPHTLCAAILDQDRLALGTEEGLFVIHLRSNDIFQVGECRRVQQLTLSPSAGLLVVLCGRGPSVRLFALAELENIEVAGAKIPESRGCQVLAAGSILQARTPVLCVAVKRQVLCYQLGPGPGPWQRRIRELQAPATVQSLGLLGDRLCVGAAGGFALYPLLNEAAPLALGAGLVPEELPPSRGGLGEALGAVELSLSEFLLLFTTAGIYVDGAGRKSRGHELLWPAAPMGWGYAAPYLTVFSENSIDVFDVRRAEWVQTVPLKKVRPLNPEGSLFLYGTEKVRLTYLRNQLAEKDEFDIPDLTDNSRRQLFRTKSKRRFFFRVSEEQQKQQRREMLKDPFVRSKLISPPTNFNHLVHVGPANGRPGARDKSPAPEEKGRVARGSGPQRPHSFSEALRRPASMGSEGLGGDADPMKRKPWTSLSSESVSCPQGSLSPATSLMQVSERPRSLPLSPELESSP
Ribosomal protein S6 kinase alpha-6, sequence (Q9UK32 whole entry): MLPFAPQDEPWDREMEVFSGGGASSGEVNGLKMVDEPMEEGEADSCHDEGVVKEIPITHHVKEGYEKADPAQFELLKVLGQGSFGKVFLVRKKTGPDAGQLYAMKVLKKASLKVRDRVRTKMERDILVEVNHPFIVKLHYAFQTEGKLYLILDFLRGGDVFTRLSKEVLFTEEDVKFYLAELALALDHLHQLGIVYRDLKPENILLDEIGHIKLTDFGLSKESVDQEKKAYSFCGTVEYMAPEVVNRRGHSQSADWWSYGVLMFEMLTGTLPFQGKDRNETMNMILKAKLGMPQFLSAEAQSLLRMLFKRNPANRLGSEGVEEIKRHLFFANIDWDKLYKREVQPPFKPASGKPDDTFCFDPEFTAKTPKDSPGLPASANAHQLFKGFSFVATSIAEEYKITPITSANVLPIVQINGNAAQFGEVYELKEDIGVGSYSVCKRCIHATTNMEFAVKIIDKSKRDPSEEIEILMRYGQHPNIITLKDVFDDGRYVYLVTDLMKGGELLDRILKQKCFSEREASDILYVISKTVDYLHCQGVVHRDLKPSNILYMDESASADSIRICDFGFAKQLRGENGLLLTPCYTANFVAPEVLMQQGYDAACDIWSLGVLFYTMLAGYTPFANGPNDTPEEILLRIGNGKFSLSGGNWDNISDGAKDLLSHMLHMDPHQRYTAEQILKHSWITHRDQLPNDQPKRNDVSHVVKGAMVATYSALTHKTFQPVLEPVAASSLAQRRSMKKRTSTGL
Maternal embryonic leucine zipper kinase (Homo sapiens), sequence (Q14680 whole entry, looked up): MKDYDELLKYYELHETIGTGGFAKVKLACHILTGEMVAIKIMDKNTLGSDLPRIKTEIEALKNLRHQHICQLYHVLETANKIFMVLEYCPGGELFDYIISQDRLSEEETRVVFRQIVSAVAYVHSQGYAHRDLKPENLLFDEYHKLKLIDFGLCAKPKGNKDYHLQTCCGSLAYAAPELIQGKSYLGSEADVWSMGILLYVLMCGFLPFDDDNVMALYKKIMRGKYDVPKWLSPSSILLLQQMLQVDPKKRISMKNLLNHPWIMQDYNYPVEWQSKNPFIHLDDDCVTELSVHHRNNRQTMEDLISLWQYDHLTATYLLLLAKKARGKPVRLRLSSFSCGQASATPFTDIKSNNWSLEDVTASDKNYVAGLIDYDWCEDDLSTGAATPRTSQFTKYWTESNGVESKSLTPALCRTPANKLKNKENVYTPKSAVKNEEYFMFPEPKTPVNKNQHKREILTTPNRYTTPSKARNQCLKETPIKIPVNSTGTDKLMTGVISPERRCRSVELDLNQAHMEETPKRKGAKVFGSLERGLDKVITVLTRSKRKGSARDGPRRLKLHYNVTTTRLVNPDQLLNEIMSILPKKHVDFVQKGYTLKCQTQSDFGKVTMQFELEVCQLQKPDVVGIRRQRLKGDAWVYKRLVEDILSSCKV
SRSF protein kinase 1, sequence (Q96SB4 whole entry): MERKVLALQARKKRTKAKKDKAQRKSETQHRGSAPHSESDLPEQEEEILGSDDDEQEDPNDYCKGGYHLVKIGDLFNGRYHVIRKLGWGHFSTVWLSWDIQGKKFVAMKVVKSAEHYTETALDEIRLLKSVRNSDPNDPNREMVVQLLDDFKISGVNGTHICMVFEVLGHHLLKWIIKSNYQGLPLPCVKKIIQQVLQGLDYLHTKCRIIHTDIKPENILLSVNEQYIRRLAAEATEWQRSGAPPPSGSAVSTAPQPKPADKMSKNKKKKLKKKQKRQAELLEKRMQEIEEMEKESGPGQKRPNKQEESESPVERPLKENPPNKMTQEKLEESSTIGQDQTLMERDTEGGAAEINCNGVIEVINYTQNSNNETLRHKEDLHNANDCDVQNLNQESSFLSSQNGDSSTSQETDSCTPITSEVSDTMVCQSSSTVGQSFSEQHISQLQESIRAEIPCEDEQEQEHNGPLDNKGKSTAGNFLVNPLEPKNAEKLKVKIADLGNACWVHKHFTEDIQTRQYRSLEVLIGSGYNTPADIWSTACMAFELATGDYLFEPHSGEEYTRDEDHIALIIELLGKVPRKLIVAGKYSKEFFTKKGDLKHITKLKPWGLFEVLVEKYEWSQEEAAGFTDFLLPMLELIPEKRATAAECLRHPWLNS

With `COCC(=O)NC/C=C/c1ccc2ncnc(Nc3ccc(Oc4ccc(C)nc4)c(C)c3)c2c1` [CP-724714], the % of control in experiment [1] is 87%; in experiment [2], 100%.

On to `N#Cc1cccc(-c2c[nH]c3ncnc(N4CCOCC4)c23)c1`, for which the % of control in experiment [3] amounted to 69%.

Regarding `CNC(=O)Nc1ccc(-c2nc(N3CC4CCC(C3)O4)c3cnn(C4CCC5(CC4)OCCO5)c3n2)cc1`, the % of control was 98% in experiment [4] and 84% in experiment [5].

`Cc1cc([C@@H](C)Nc2ccccc2C(=O)O)c2nc(N3CCOCC3)cc(=O)n2c1` [AZD-6482] gave a % of control in experiment [6] of 100%.

In the case of `CC[C@@H]1[C@H](F)C(=O)N[C@@H]1COc1nccc2cc(C(N)=O)c(OC)cc12` [ZIMLOVISERTIB], the % of inhibition at SRSF protein kinase 1 came to 0.109%.

`C=CC(=O)Nc1cc(-n2c(=O)ccc3cnc4ccc(-c5ccc(NS(C)(=O)=O)cc5)cc4c32)ccc1C` displayed a % of control in experiment [7] of 88%.

Values taken from ChEMBL document CHEMBL5465560, “Selectivity Literature for EUbOPEN Chemogenomic Library” (2024).
